Source: ChEMBL document CHEMBL1914329, “2D MI-DRAGON: a new predictor for protein-ligands interactions and theoretic-experimental studies of US FDA drug-target network, oxoisoaporphine inhibitors for MAO-A and human parasite proteins” (Eur J Med Chem, 2011)

What was measured:
[1] = target: T1, Amine oxidase [flavin-containing] A (Homo sapiens, UniProt P21397); assay: Inhibition of human recombinant MAOA expressed in baculovirus infected BTI-TN-5B1-4 insect cells assessed as hydrogen peroxide production from p-tyramine after 15 mins by amplex red assay
T1 sequence (P21397 whole entry): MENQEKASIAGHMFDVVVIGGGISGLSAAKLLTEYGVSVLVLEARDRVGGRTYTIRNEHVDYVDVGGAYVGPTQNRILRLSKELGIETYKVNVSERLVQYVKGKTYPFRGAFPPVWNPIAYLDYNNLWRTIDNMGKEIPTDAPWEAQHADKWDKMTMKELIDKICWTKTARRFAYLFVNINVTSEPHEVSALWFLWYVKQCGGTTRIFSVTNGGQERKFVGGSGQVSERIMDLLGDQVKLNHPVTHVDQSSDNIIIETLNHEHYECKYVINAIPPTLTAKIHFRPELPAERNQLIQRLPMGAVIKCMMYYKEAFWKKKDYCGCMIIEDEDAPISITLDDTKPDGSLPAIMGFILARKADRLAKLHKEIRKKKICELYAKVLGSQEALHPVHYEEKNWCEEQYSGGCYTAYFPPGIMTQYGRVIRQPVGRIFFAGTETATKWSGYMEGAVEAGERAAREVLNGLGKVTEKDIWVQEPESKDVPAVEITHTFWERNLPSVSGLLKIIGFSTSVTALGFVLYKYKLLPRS

[2] = target: T2, Amine oxidase [flavin-containing] B (Homo sapiens, UniProt P27338); assay: biochemical; type: cell-based, BTI-TN-5B1-4
T2 sequence (P27338 whole entry): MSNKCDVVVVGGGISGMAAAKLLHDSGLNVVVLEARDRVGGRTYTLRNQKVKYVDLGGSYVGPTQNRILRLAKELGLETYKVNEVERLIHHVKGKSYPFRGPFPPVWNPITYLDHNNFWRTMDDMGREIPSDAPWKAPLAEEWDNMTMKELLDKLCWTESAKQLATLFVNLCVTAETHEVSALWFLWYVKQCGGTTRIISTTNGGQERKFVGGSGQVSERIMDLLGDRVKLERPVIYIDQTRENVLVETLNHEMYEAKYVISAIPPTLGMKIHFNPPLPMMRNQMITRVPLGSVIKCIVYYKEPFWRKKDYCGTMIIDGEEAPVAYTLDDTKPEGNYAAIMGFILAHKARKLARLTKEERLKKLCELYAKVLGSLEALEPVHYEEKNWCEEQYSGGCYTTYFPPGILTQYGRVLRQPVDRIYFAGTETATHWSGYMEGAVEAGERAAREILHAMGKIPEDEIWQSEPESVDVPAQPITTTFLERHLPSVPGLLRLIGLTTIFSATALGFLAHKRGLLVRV
Description: Inhibition of human recombinant MAOB expressed in baculovirus infected BTI-TN-5B1-4 insect cells assessed as hydrogen peroxide production from p-tyramine after 15 mins by amplex red assay

Homo sapiens = organism: Homo sapiens; assay: Selectivity index, ratio of IC50 for human recombinant MAO-B to IC50 for human recombinant MAO-A
[3] = target: T2, Amine oxidase [flavin-containing] B; assay: Inhibition of human recombinant MAOB expressed in baculovirus infected BTI-TN-5B1-4 insect cells assessed as hydrogen peroxide production from p-tyramine at 1 mM after 15 mins by amplex red assay; details: bti-tn-5b1-4, 0.25 h, 1000 µM

Q: Which results are given for `O=C1c2ccccc2-c2nccc3cc(O)cc1c23`?
A: IC50 [1]: 0.035 µM; IC50 [2]: > 100 µM; Ratio IC50 (Homo sapiens): > 2860

Q: `COc1cc2c3c(nccc3c1)-c1ccccc1C2=O` was tested. Which IC50 [2] did it give?
A: Its IC50 is over 100 µM.

Q: What does the source list for `COc1cc2c3c(c1)C(=O)c1ccccc1C3=NCC2`?
A: IC50 [1]: 0.014 µM; IC50 [2]: > 100 µM; Ratio IC50 (Homo sapiens): > 7140

Q: For `COc1cc2c3c(c1O)C(=O)c1ccccc1C3=NCC2`, which IC50 [1] is on record?
A: Its IC50 is 0.044 µM.

Q: And the IC50 [2]?
A: The IC50 was over 100 µM.

Q: And the Ratio IC50 (Homo sapiens)?
A: The Ratio IC50 was over 2270.

Q: Which results are given for `COc1cc2c3c(c1)C(O)c1ccccc1C3NCC2` (centres undefined)?
A: IC50 [1]: 9.81 µM; IC50 [2]: > 50 µM; Ratio IC50 (Homo sapiens): > 5.1

Q: What does the source list for `COC1=Cc2ccnc3c2c(cc2ccccc23)C1=O`?
A: IC50 [1]: 0.013 µM; IC50 [2]: > 100 µM; Ratio IC50 (Homo sapiens): > 7690

Q: Which IC50 [1] does the source give for `COc1cc2c3c(c1)C(=O)C1=C(CCCC1)C3=NCC2` here?
A: Its IC50 is 2.12 µM.

Q: What about the IC50 [2] of the same molecule?
A: Its IC50 is over 50 µM.

Q: And the Ratio IC50 (Homo sapiens)?
A: Its Ratio IC50 is over 24.

Q: Which “inhibition (INH)” value [3] does the source give for `O=C(NCCN1CCOCC1)c1ccc(Cl)cc1` [MOCLOBEMIDE] here?
A: Its value is “Not Active”.

Q: With `O=C1c2ccccc2C2=NCCc3cccc1c32` as the molecule, how does the IC50 [1] read?
A: The IC50 was 27.3 µM.

Q: What about the IC50 [2] of the same molecule?
A: The IC50 was over 100 µM.

Q: What about the Ratio IC50 (Homo sapiens) of the same molecule?
A: Its Ratio IC50 is over 3.7.

Q: How did the IC50 [1] turn out when `O=C1c2ccccc2-c2nccc3cccc1c23` was run?
A: Its IC50 is 0.72 µM.

Q: What about the IC50 [2] of the same molecule?
A: Its IC50 is over 100 µM.

Q: And the Ratio IC50 (Homo sapiens)?
A: Its Ratio IC50 is over 139.

Q: How did the IC50 [1] turn out when `COc1cc2ccnc3c2c(c1O)C(=O)c1ccccc1-3` was run?
A: The IC50 was 1.23 µM.

Q: What about the IC50 [2] of the same molecule?
A: Its IC50 is over 100 µM.

Q: What about the Ratio IC50 (Homo sapiens) of the same molecule?
A: The Ratio IC50 was over 81.
